According to article PMC1079853, “Alkane-induced expression, substrate binding profile, and immunolocalization of a cytochrome P450 encoded on the nifD excision element of Anabaena 7120” (BMC Microbiology, 2005):

Target: T1, CYP110 (Nostoc sp. PCC 7120 = FACHB-418, UniProt P29980)
T1 construct: recombinant, expressed in E. coli from pUC8 vector, purified soluble fraction; about 50 kDa; U38537 is the complete nifD element carrying cyp110
T1 sequence (P29980 1-459): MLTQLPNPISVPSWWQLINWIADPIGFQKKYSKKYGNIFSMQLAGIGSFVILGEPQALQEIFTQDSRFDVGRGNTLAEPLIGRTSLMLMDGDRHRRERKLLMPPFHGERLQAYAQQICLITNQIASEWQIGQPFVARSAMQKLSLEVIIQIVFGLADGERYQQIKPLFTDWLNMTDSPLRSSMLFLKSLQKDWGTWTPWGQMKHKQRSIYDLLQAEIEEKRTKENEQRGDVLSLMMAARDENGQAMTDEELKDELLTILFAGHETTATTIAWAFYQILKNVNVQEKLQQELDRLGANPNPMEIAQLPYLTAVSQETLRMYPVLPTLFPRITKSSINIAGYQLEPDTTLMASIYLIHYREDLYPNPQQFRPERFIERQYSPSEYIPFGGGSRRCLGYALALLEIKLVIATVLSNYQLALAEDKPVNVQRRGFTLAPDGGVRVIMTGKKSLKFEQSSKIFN
Test: UV-visible spectral shift titration
Format: binding
Details: read-out: Ks
From the text: UV-visible spectral shift titration on CYP110

Compared with `CCCCCCCCCCN` [Decyl Amine], `CCCCCCCCCN` [Nonyl Amine] is 1.5-fold higher in Kd: 41 µM for the first, 62 µM for the second. The first binds more tightly here.

Going from `CCCCCCCCCCCCCCC(=O)O` [Pentadecanoic Acid] to `CCCCCCCCCCCCCCCC(=O)O` [Hexadecanoic Acid], the Kd rises from 210 µM to 500 µM (2.4-fold).

Compared with `CCCCCCCCCCCCCCCCCC(=O)O` [Octadecanoic Acid], `CCCCCCCCCCCCCCCCC(=O)O` [Heptadecanoic Acid] is 2.8-fold lower in Kd: 3100 µM for the first, 1100 µM for the second.

Going from `CCCCCN` [Pentyl Amine] to `CCCCCCN` [Hexyl Amine], the Kd falls from 540 µM to 320 µM (1.7-fold).

`CCCCCCCCCCCC(N)=O` [Lauryl Amide] and `CCCCCCCCCCCC(=O)O` [Dodecanoic Acid] are within 1.5-fold of each other in Kd: 2210 µM for the first, 1900 µM for the second.

First: CC/C=C\C/C=C\C/C=C\CCCCCCCC(=O)O [9,12,15-Octadecatrienoic Acid]
Second: CCCCCC=CCC=CCCCCCCCC(=O)O [9,12-Octadecadienoic Acid]
The Kd of the first is 12-fold lower: 62 µM for the first, 720 µM for the second. The first binds more tightly here.

First: CCCCCCCCCCCCCC(=O)O [Tetradecanoic Acid]
Second: CCCCCCCCCCCCC(=O)O [Tridecanoic Acid]
The Kd of the first is 9.3-fold lower: 91 µM for the first, 850 µM for the second.

`CCCCCCCN` [Heptyl Amine] and `CCCCCCCCN` [Ocytl Amine] are within 1.5-fold of each other in Kd: 102 µM for the first, 81 µM for the second.

Compared with `NCCCCCCCCCCCC(=O)O` [12-Aminododecanoic Acid], `CCCCCCCCCCCCN` [Dodecyl Amine] is 35-fold lower in Kd: 416 µM for the first, 12 µM for the second. The second binds more tightly here.

Compared with `CCCCC/C=C\C/C=C\C/C=C\C/C=C\CCCC(=O)O` [Arachidonic Acid], `CCCCCCCCCCCC(=O)NC` [N-methyl Lauryl Amide] is 50-fold higher in Kd: 51 µM for the first, 2560 µM for the second. The first binds more tightly here.
